“Also recorded” adds a separate entry of the source.
What was measured:
Assay type in all cases: cell-based, human
[1] = system: iPSC-derived NKX2-1+ lung progenitors; experiment: Immunofluorescence and intracellular flow cytometry for NKX2-1, SOX2, SOX9, P63 coexpression at day 19
Experimental: Cells were harvested for intracellular flow cytometry and fixed for 10-20 minutes at 37° C. in fresh 1.6% paraformeldehyde. Cells were permeabilized with Cell Permeabilization Buffer (eBioscience, San Diego, Calif.) containing 4% normal donkey serum (Sigma) in PBS and stained with primary antibody for NKX2-1 (Abcam # ab76013, rabbit EP1584Y, 1:100) or a conjugated antibody for SOX2 (BD #561506, PerCP-Cy5.5 conjugated, mouse O30-678, 1:100). Anti-NKX2-1 antibody was detected by secondary antibody stainings with either Cy3, Alexa Fluor 488, or Alexa Fluor 647 fluorophore-conjugated secondary antibodies (AffiniPure Donkey Anti-Rabbit IgG (H+L); 1:500; Jackson ImmunoResearch, West Grove, Pa.). Stained cells were analyzed on a FacsCalibur instrument (BD Biosciences, San Jose, Calif.) and data was analyzed with FlowJo software (Ashland, Oreg.).
Cells for immunofluorescence microscopy were cultured on glass coverslips (ThermoFisher). Cultured cells were fixed with fresh 4% paraformeldehyde and stained as described previously(Kurmann et al., 2015). Briefly, cells were permeabilized with 0.3% Triton-X (Sigma) for 10 minutes at room temperature then blocked with 4% normal donkey serum (Sigma) for 30 minutes at room temperature. Cells were incubated with primary antibodies (detailed in Key Resources Table 3) overnight at 4° C., washed, and incubated with secondary antibodies for 30-60 minutes at room temperature. All secondary antibodies were conjugated to Alexa Fluor 488, Cy3, or Alexa Fluor 647 (Jackson Immunoresearch, 1:500). After antibody staining, nuclei were stained with Hoescht dye (ThermoFisher, 1:500). Coverslips with cells were mounted on glass slides using Prolong Diamond Anti-Fade Mounting Reagent (ThermoFisher) and imaged on a Nikon (Tokyo, Japan) deconvolution microscope.
Quantification of nuclear colocalization was performed using Nikon NIS Elements software using the Object Count function. 3-5 areas from each slide were analyzed for each replicate. The total image area where NKX2-1 and SOX2 or P63 overlapped was divided by the area containing only the NKX2-1 stain.

[2] = system: iPSC-derived anterior foregut endoderm cells; experiment: Lung specification from anterior foregut endoderm with or without CHIR (NKX2-1GFP flow cytometry, 7XTCF-mCherry reporter)
[3] = system: sorted NKX2-1GFP+ epithelial lung progenitors; experiment: Purified NKX2-1GFP+ lung progenitors replated in 3D culture with or without CHIR, day 14 to 20
Experimental: Cells grown in two-dimensional culture were harvested by incubation with 0.05% Trypsin-EDTA for 10-20 minutes at 37° C. Cells cultured in three-dimensional growth factor reduced Matrigel were harvested by incubation with 2 mg/mL dispase (ThermoFisher) for 30-60 minutes at 37° C. then subsequent incubation with 0.05% trypsin at 37° C. until a single cell suspension was achieved. Cells were washed with media containing 10% fetal bovine serum (FBS, ThermoFisher.) Harvested cells were spun at 300 RCF for 5 minutes at 4° C. and resuspended in buffer containing Hank's Balanced Salt Solution (ThermoFisher), 2% FBS and 10 μM Y-27632 (Tocris) and stained with propidium iodide (ThermoFisher) or calcein blue AM (ThermoFisher) for dead cell exclusion during flow cytometry. Live cells were sorted on a high speed cell sorter (MoFlo Legacy, Beckman Coulter, Pasadena, Calif.) at the Boston University Medical Center Flow Cytometry Core Facility based on NKX2-1GFP expression or by staining for CD47 (Biolegend) and CD26 (Biolegend) and gating for CD47^hi/CD26^−. […]
The final protocol for generating rapidly proximalized NKX2-1+ lung epithelium was replating unsorted or sorted cells for 4 days of culture post-specification in cSFDM containing 10 ng/mL FGF10. […] Cells were analyzed for expression of proximal markers 4 days post-replating in FGF10 media.
The inventors next assessed whether the effect of CHIR manipulation on proximodistal lung patterning was intrinsic to lung epithelial cells rather than due to secondary or bystander effects. […] By day 20, the sorted cells formed small spheres coexpressing NKX2-1 and EPCAM (FIG. 3B-3C). >90% of all outgrowth cells in either culture conditioned maintained NKX2-1^GFP (+CHIR: 98.2±0.5%−CHIR: 93.4±2.3%) (FIG. 3D-3E) and cells in each condition formed organoids with no measured statistical difference in efficiency.

[4] = withdrawal of CHIR, re-sorted NKX2-1GFP+ cells at day 20

## Cc1c[nH]c(-c2cnc(NCCNc3ccc(C#N)cn3)nc2-c2ccc(Cl)cc2Cl)n1 [CHIR, CHIR99021]
[1]; CHIR withdrawal day 15-19 (FGF10 alone) vs CHIR, immunofluorescence
  cells co-expressing NKX2-1 and P63: increased frequencies; also recorded: significantly increased coexpression
[1]; CHIR withdrawal day 15-19 vs CHIR
  percentage of cells coexpressing NKX2-1 and SOX2: significantly higher percentage; also recorded: small but significant increase
[1]; CHIR-treated day 15-19, intracellular flow cytometry, without CHIR 68.0±4.1%
  NKX2-1+ population expressing SOX2: 54.9±5.5%
[1]; day 19, with CHIR (also without CHIR)
  SOX2+ cells among NKX2-1+ cells: > 50%
[1]; sustained CHIR day 15-19, triple immunostaining, 4 days after withdrawal of CHIR <40%
  NKX2-1+ cells that were SOX9+: > 90%
[2]; cells differentiated without CHIR to day 15
  rescue of NKX2-1GFP expression by later addition: could not be rescued
[2]; presence of CHIR vs without, as early as 48 h after initiation of specification, maintained until at least day 15
  NKX2-1GFP expression during lung specification: significantly higher levels
[2]; specification media with CHIR vs vehicle alone, normalized to Ef1aL-mCherry
  7TC (7XTCF-mCherry) reporter expression: rapid upregulation
[3]; +CHIR day 14-20, 3D culture of sorted cells, flow cytometry, −CHIR: 93.4±2.3%
  outgrowth cells maintaining NKX2-1GFP on day 20: 98.2±0.5%
[3]; [4]
  expression of distal lung genes SOX9 and ETV5: downregulation
  expression of proximal lung genes SOX2, SCGB3A2, TP63: upregulation

Source: patent publication US10590392B2, “Generation of airway epithelial organoids from human pluripotent stem cells” (TRUSTEES OF BOSTON UNIVERSITY, priority 2017, dated 2020)
